The results in this text go back to EPA's ToxValDB 9.5 (doi:10.2903/j.efsa.2008.139r).

In one data set the test system is Oncorhynchus mykiss. As to conditions: chronic/long-term.
The next data set has as its system Tagia sp. As to conditions: acute; duration: 14 days; mortality.
Another data set has as its system Canidae. As to conditions: oral, Dog Other, organ weight.
The next data set concerns Apis mellifera. The settings on record: acute, mortality.
The subject of a further data set is Oryctolagus sp. The settings on record: developmental; development.
The test system of the next data set is Perdix sp. The settings on record: acute; oral; unspecified; mortality.
For the next data set, the system named is Lepomis macrochirus. As to conditions: acute; mortality.
Another data set deals with Daphnia magna. As to conditions: chronic/long-term.
The next data set concerns Typhlodromus pyri. The experiment in a line: LR50; higher = less toxic. The settings on record: not reported; mortality.

In the case of `CCO/N=C(\CC)C1=C(O)CC(c2c(C)cc(C)cc2C)CC1=O` (stereo unspecified) [Tralkoxydim], the NOEC came to 4.6 mg/L with Oncorhynchus mykiss, 20 mg/kg-day in the data set on Oryctolagus sp., 2.1 mg/L in the data set with Daphnia magna and 14.3 mg/kg-day in the data set on Colinus virginianus (reproduction developmental). Moreover, the LC50 was over 1000 mg/kg in the data set on Tagia sp.; over 6.1 µg/mL in the data set with Lepomis macrochirus; 1020 mg/kg-day in the data set with Colinus virginianus (acute, oral, diet, mortality). Besides, the NOAEL (usually the highest dose or exposure tested at which no adverse effect was seen) with Canidae (chronic, duration: 1 years) was 0.5 mg/kg-day; with Canidae (subchronic, duration: 90 days), 0.5 mg/kg-day; with Rattus norvegicus (developmental, development), 1 mg/kg-day; in the data set on Rattus norvegicus (reproduction developmental, body weight), 18.2 mg/kg-day. In addition, the LD50 was over 100 µg/piece in the data set on Apis mellifera (dermal); over 117 µg/piece in the data set on Apis mellifera (oral, unspecified); 934 mg/kg-day in the data set on Rattus norvegicus (acute, oral, mortality); 2020 mg/kg-day in the data set on Perdix sp.. The same molecule showed an LR50 with Typhlodromus pyri of over 450 g/ha.
